Key:
[1] = cited from earlier work; for AI Limit: FDA recommended acceptable intake limit in drug products
[2] = Analysis of nitrosamine impurities (VC09, NDEA) in drug substance, blends and tablets; type: physicochemical; conditions: Table 2
[3] = Regulatory acceptable intake (AI) limits for nitrosamine impurities; parameters: species or system human; conditions: determined in view of the EMA limit
Experimental: FDA recommends the following acceptable intake (Al) limits fir the nitrosamine impurities a s given in the below table:
The conversion of Al limit into ppm varies by product and is calculated based on a drug's maximum daily dose (MDD) as reflected in the drug label (ppm=Al (ng)/MDD(mg)).
These limits are applicable only if a drug product contains a single nitrosamine.
Apart from NDMA there is another nitrosamine impurity, N-nitroso-varenicline which is usually found in APIs as well as finished product of varenicline. As per the recent update, USFDA has provided acceptable intake limit of N-nitroso-varenicline (VC09) from 37 ng/day to 185 ng/day, in finished product of varenicline.
Additionally, European Medicines Agency (EMA) has also provided the daily acceptable intake limit for N-nitroso-varenicline impurity as 18 ng/day. In view of the above limit minimum daily intake limit for VC09 was determined as 9 ppm.

Row | Compound | AI Limit [1] [ng/day] | other results
1 | CN(C)N=O [NDMA, N-nitrosodimethylamine] | 96 | –
2 | Varenicline Tartrate [Drug Substance] | – | Nitrosamines Results in ppm, VC09 ([2]; 40/75, 7 days, open): 0.20 ppm; Nitrosamines Results in ppm, VC09 ([2]; 60° C, 7 days, open): 0.27 ppm; Nitrosamines Results in ppm, VC09 ([2]; Initial (Chantix tablets: condition not given)): 0.23 ppm
3 | CC(C)N(N=O)C(C)C [NDIPA, N-nitrosodiisopropylamine] | 26.5 | –
4 | CCN(CC)N=O [NDEA, N-nitrosodiethylamine] | 26.5 | –
5 | CN(CCCC(=O)O)N=O [NMBA, N-nitroso-N-methyl-4-aminobutanoic acid] | 96 | –
6 | O=NN1CC2CC(C1)c1cc3nccnc3cc12 [N-nitroso-varenicline] | – | minimum daily intake limit [3]: 9 ppm; daily acceptable intake limit ([1]; European Medicines Agency (EMA)): 18 ng/day
7 | CCN(N=O)C(C)C [NIPEA, N-nitrosoisopropylethyl amine] | 26.5 | –

Reference: patent US20240307310A1, “STABILIZED SOLID ORAL PHARMACEUTICAL COMPOSITION OF VARENICLINE” (LUPIN LIMITED, priority 2021, published 2024)
